Data reported in paper PMC9997069 (Molecular Pharmaceutics, 2023).
“And” between values parts separate entries of the source, which are not always exact repeats. Equal entries are not always repeated. “Also recorded” adds a separate entry of the source. Where two headings read alike, the source gives them in different places. Blank lines part the entries; values can stand above or below the molecule they belong to.

Key:
[1] = molecular target: T1, HSA (Homo sapiens, UniProt P02768); settings: cited from earlier work
T1 construct: purchased Sigma-Aldrich
T1 sequence (P02768 25-609): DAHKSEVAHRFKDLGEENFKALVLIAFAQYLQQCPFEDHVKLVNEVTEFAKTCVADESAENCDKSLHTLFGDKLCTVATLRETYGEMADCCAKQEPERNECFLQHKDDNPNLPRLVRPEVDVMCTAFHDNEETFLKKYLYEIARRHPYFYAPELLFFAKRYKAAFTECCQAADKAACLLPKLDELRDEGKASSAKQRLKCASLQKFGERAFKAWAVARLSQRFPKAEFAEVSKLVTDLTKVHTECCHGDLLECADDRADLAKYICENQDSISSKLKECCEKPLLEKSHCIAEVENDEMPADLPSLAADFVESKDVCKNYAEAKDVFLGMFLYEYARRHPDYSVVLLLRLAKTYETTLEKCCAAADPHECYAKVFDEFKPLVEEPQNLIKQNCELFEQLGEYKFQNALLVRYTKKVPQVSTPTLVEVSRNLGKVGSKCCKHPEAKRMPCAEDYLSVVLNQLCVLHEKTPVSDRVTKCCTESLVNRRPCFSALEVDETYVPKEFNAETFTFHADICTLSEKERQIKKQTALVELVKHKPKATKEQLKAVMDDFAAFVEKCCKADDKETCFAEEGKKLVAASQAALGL

[2] = system: BSA; settings: cited from earlier work
[3] = cited from earlier work
[4] = molecular target: T2, human serum albumin (HSA) (Homo sapiens, UniProt P02768); assay: Binding to HSA by Trp214 fluorescence quenching titration; settings: for n^c ± 2σ number of binding sites / Kd / n^u ± 2σ: HSA; for n^c ± 2σ number of binding sites: inner filter corrected
T2 construct: purchased Sigma-Aldrich
T2 sequence (P02768 25-609): as above
Method: The emission fluorescence intensity was collected at 320 nm to avoid the fluorescence emission of the drugs. […] The excitation and emission slits were fixed at 1 and 5 nm, respectively. The step and dwell times were 1 nm and 0.1 s, respectively.
Enthalpy (ΔH) and entropy (ΔS) changes were obtained from the van′t Hoff equation [drawing 6] 6 and free energy (ΔG) changes were calculated from [drawing 7] 7 The van’t Hoff plots are shown in Figure 9, and the corresponding thermodynamic parameters are collected in Table 2. […] Proton-releasing processes in protein–ligand interactions generally result in a positive enthalpy.[64]

[5] = molecular target: T1, HSA; assay: Competitive binding experiments with warfarin (site 1) and ibuprofen (site 2)
Method: The HSA binding experiments were performed at 310 K using [HSA]:[warfarin] and [HSA]:[ibuprofen] ratios of 1. […] Synchronous fluorescence spectroscopy experiments were performed to analyze the changes in the microenvironment polarity around fluorescent residues of HSA. When the value of the intervals (Δλ) between the excitation and emission wavelengths is set at 15 nm, synchronous fluorescence spectra offer characteristic information on tyrosine residues.[61]−[63]

[6] = Protonation equilibria by UV-vis pH titration with DFT assignment; type: physicochemical; settings: for pKa: aqueous solution
[7] = system: PLK2 and PLK3; parameters: method as in PMID 21459796, PMID 21809214, PMID 19690138; settings: cited from earlier work
[8] = system: panel of 48 other kinases; parameters: method as in PMID 21459796, PMID 21809214, PMID 19690138; settings: cited from earlier work
[9] = system: cancer cell lines; parameters: method as in PMID 19690138; settings: tested cancer cell lines; cited from earlier work
[10] = system: multiple leukemia cell lines; parameters: method as in PMID 26478211; settings: cited from earlier work
[11] = system: xenograft mouse models; parameters: method as in PMID 26478211; settings: cited from earlier work
[12] = noncompartmental analysis, 1 hour infusion, 25 to 200 mg on day 1 and day 8 of a 21 day course
[13] = HSA/drug complex, van't Hoff plot 298-310 K
[14] = equilibrium between spectroscopic species 1 (charge 0/+1) and 2 (charge +2)

SMILES: CNC(=O)c1cc(Oc2ccc(NC(=O)Nc3ccc(Cl)c(C(F)(F)F)c3)cc2)ccn1 [Sorafenib]
Ka^c binding constant ([1]; HSA, 305 K): 2.64 × 10^4 M^–1
ΔG^0 ([1]; HSA, 305 K): –25.8 kJ mol^–1
ΔH^0 ([1]; HSA): –28.2 kJ mol^–1
ΔS^0 ([1]; HSA): –7.87 J K^–1 mol^–1

SMILES: C#Cc1cccc(Nc2ncnc3cc(OCCOC)c(OCCOC)cc23)c1 [Erlotinib]
Ka^c binding constant ([2]; 307 K): 3.44 × 10^2 M^–1

SMILES: Cc1cc(Nc2cc(N3CCN(C)CC3)nc(Sc3ccc(NC(=O)C4CC4)cc3)n2)[nH]n1 [MK-0457]
Ka^c binding constant ([1]; HSA, 310 K): 1.05 × 10^4 M^–1
ΔG^0 ([1]; HSA, 310 K): –23.02 kJ mol^–1
ΔH^0 ([1]; HSA): –130.63 kJ mol^–1
ΔS^0 ([1]; HSA): –343.89 J K^–1 mol^–1

SMILES: Cc1ccc(F)c(NC(=O)Nc2ccc(-c3cccc4[nH]nc(N)c34)cc2)c1 [Linifanib]
Ka^c binding constant ([2]; 308 K): 4.3 × 10^3 M^–1

SMILES: COc1cc2c(Nc3ccc(Br)cc3F)ncnc2cc1OCC1CCN(C)CC1 [Vandetanib]
Ka^c binding constant ([1]; HSA, 303 K): 7.63 × 10^3 M^–1
ΔG^0 ([1]; HSA, 303 K): –22.56 kJ mol^–1
ΔH^0 ([1]; HSA): –6.57 kJ mol^–1
ΔS^0 ([1]; HSA): 52.76 J K^–1 mol^–1

SMILES: CCOc1cc2ncc(C#N)c(Nc3ccc(OCc4ccccn4)c(Cl)c3)c2cc1NC(=O)/C=C/CN(C)C [Neratinib]
Ka^c binding constant ([1]; HSA, 310 K): 2.25 × 10^5 M^–1

SMILES: C[C@@H](Oc1cc(-c2cnn(C3CCNCC3)c2)cnc1N)c1c(Cl)ccc(F)c1Cl [Crizotinib]
Ka^c binding constant ([2]; 309 K, listed as crizotinib): 3.4 × 10^4 M^–1
Ka^c binding constant ([2]; 309 K): 3.43 × 10^4 M^–1

SMILES: CC[C@@H]1C(=O)N(C)c2cnc(Nc3ccc(C(=O)NC4CCN(C)CC4)cc3OC)nc2N1C1CCCC1 [BI-2536]
terminal half-life (up to) ([3]; 1 hour intravenous infusion, 50, 60 and 70 mg on days 1 and 3 of a 21 day course): 20 to 30 h
volume of distribution [3]: 751 to 2200 L
half-life [3, 12]: around 25 hours
half-life, max [3, 12]: 55.1 h
half-life, min [3, 12]: 18.6 h
terminal half-life ([3]; single intravenous infusion, 200 mg over 1 h): 15.4 h
ΔG^0 ([1]; HSA/drug complex, 298 K): –33.6 kJ mol^–1
ΔG^0 ([1]; HSA/drug complex, 303 K): –36.0 kJ mol^–1
ΔG^0 ([1]; HSA/drug complex, 310 K): –39.2 kJ mol^–1
ΔH^0 ([1]; HSA/drug complex): 103.8 kJ mol^–1
ΔS^0 ([1]; HSA/drug complex): 461.3 J K^–1 mol^–1
Ka^c binding constant to HSA [1]: 3.78 × 10^6 M^–1
Ka^u binding constant to HSA [1]: 11.4 × 10^7 M^–1
n^c ± 2σ number of binding sites [1]: 1.30 ± 0.09 and 1.22 ± 0.16 and 1.35 ± 0.16

binding constant to HSA, times lower than for RO3280 ([4]; 310 K): 25 times
n^c ± 2σ number of binding sites ([4]; 298 K): 1.19 ± 0.06
Kd ([4]; 298 K, pH 7.4, inner filter corrected, read-out: Ka^c binding constant (converted)): 4.81 µM
n^u ± 2σ ([4]; 298 K, without inner filter corrections): 1.29 ± 0.10
Kd ([4]; 298 K, without inner filter corrections, read-out: log Ka^u ± 2σ (converted)): 0.871 µM
n^c ± 2σ number of binding sites ([4]; 303 K): 1.15 ± 0.03
Kd ([4]; 303 K, pH 7.4, inner filter corrected, read-out: Ka^c binding constant (converted)): 8.26 µM
n^u ± 2σ ([4]; 303 K, without inner filter corrections): 1.28 ± 0.05
Kd ([4]; 303 K, without inner filter corrections, read-out: log Ka^u ± 2σ (converted)): 1.07 µM
n^c ± 2σ number of binding sites ([4]; 310 K): 1.11 ± 0.05
Kd ([4]; 310 K, pH 7.4, inner filter corrected, read-out: Ka^c binding constant (converted)): 11.4 µM
n^u ± 2σ ([4]; 310 K, without inner filter corrections): 1.23 ± 0.06
Kd ([4]; 310 K, without inner filter corrections, read-out: Ka^u binding constant to HSA (converted)): 1.79 µM
ΔG^0 ([4]; HSA/drug complex, 298 K): –30.22 kJ mol^–1
ΔG^0 ([4]; HSA/drug complex, 303 K): –29.80 kJ mol^–1
ΔG^0 ([4]; HSA/drug complex, 310 K): –29.20 kJ mol^–1
ΔH^0 [4, 13]: –55.61 kJ mol^–1
ΔS^0 [4, 13]: –85.20 J K^–1 mol^–1
Kd ([5]; 310 K, [HSA]:[warfarin] ratio of 1, 5 μM, read-out: binding constant to HSA in the presence of warfarin (converted)): 1.04 mM
preferential binding site into HSA ([5]; competitive experiments with warfarin and ibuprofen): site 1; also recorded: site I
pKa [6, 14]: 1.4
SMILES: C[C@@H](Oc1cc(-n2cnc3ccc(CN4CCN(C)CC4)cc32)sc1C(N)=O)c1ccccc1C(F)(F)F [GSK461364]
selectivity for PLK1 than for PLK2 and PLK3 [7]: at least 390 fold
selectivity for PLK1 than for a panel of 48 other kinases [8]: 1000 fold
cell growth inhibition [9]: causes cell growth inhibition in a high percentage of tested cancer cell lines

SMILES: C[C@H](Cn1cnc2c(N)ncnc21)OCP(=O)(O)O [tenofovir]
binding constant to HSA ([1]; 310 K): 5.7 × 10^4 M^–1

SMILES: C=CC(=O)N1CCC[C@@H](n2nc(-c3ccc(Oc4ccccc4)cc3)c3c(N)ncnc32)C1 [Ibrutinib]
Ka^c binding constant ([1]; HSA, 310 K): 7.2 × 10^3 M^–1
ΔG^0 ([1]; HSA, 310 K): –25.09 kJ mol^–1
ΔH^0 ([1]; HSA): –16.91 kJ mol^–1
ΔS^0 ([1]; HSA): 26.44 J K^–1 mol^–1

SMILES: COc1cc(C(=O)NC2CCN(C)CC2)ccc1Nc1ncc2c(n1)N(C1CCCC1)CC(F)(F)C(=O)N2C [RO3280]
pKa [6, 14]: 12.6
pKa ([6]; equilibrium to species with charge +3, acidic pH): 3.8
charge state at the physiological pH ([6]; pH 7.4, aqueous solution): +2
in vitro cellular potency [10]: high in vitro cellular potency
antitumor activity [11]: significant level of antitumor activity

SMILES: Cc1cc(C(=O)Nc2nc3cccc(Cl)c3n2[C@@H]2CCCCN(C(=O)/C=C/CN(C)C)C2)ccn1 [Nazartinib (EGF816), Nazartinib]
Ka^c binding constant ([1]; HSA, 310 K): 2.67 × 10^4 M^–1
ΔG^0 ([1]; HSA, 310 K): –26.27 kJ mol^–1
ΔH^0 ([1]; HSA): –3.22 kJ mol^–1
ΔS^0 ([1]; HSA): 74.36 J K^–1 mol^–1
